Measured values published in BindingDB's records for doi:10.1016/0014-2999(89)90802-9 (Virginia Commonwealth University, 1989).

What was measured:
[1] = target: T1, 5-hydroxytryptamine receptor 3A (Rattus norvegicus, UniProt P35563)
T1 sequence (P35563 whole entry): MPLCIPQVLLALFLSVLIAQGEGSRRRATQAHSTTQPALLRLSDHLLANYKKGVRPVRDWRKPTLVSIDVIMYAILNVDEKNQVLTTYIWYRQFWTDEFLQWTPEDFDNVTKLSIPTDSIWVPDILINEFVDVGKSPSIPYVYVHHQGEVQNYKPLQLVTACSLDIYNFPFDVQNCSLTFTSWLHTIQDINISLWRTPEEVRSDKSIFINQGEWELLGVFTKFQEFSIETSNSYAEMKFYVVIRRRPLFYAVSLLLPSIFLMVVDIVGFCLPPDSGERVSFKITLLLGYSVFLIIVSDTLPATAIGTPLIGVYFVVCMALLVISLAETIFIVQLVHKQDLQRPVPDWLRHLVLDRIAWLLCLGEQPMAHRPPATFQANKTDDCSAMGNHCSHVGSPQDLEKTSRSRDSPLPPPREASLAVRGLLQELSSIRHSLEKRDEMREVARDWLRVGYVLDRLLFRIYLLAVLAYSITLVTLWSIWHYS

[2] = target: Beta-2 adrenergic receptor (Rattus norvegicus, UniProt P10608)
Chain of Beta-2 adrenergic receptor (P10608 whole entry): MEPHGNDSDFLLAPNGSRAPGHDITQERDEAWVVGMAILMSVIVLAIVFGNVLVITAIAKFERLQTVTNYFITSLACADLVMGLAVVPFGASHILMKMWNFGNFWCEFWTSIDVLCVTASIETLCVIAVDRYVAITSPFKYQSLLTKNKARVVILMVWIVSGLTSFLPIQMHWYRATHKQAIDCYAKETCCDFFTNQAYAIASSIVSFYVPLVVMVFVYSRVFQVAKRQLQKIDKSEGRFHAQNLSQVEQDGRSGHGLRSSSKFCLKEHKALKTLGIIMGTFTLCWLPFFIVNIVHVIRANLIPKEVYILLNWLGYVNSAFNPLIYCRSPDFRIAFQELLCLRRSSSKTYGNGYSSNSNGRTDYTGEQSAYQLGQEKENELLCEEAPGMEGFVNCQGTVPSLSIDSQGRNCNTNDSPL

[3] = target: 5-hydroxytryptamine receptor 2A (Rattus norvegicus, UniProt P14842)
Chain of 5-hydroxytryptamine receptor 2A (P14842 whole entry): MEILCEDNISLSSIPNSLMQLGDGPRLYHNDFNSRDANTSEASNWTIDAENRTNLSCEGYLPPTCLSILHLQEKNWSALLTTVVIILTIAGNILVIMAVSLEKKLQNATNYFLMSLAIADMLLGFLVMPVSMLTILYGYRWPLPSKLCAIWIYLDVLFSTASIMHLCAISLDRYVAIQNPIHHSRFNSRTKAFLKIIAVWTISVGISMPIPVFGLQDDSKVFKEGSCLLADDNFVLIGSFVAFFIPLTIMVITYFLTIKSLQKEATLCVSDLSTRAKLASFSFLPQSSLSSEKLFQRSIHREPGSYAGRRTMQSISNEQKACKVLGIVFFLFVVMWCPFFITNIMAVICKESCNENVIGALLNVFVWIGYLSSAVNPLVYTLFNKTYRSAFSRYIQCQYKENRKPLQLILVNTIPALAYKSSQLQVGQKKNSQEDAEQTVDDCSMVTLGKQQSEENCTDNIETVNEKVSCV

[4] = target: T2, Solute carrier family 22 member 1 (Rattus norvegicus, UniProt Q63089)
T2 sequence (Q63089 whole entry): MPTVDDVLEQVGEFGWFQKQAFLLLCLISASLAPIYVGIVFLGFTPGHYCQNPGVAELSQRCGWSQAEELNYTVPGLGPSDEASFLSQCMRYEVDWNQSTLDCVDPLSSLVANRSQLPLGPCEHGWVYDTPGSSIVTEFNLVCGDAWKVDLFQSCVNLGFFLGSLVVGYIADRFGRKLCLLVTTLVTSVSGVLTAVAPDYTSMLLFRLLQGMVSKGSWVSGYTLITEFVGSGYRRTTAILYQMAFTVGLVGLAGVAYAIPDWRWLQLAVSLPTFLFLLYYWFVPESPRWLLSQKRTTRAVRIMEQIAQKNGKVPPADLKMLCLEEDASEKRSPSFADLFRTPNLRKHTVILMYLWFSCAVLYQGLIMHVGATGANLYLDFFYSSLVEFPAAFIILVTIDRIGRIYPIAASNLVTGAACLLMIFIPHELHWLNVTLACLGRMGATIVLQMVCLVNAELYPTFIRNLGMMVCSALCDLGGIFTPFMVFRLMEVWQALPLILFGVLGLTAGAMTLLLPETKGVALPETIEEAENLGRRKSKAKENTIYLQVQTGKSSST

[5] = target: T3, Solute carrier family 22 member 2 (Rattus norvegicus, UniProt Q9R0W2)
T3 sequence (Q9R0W2 whole entry): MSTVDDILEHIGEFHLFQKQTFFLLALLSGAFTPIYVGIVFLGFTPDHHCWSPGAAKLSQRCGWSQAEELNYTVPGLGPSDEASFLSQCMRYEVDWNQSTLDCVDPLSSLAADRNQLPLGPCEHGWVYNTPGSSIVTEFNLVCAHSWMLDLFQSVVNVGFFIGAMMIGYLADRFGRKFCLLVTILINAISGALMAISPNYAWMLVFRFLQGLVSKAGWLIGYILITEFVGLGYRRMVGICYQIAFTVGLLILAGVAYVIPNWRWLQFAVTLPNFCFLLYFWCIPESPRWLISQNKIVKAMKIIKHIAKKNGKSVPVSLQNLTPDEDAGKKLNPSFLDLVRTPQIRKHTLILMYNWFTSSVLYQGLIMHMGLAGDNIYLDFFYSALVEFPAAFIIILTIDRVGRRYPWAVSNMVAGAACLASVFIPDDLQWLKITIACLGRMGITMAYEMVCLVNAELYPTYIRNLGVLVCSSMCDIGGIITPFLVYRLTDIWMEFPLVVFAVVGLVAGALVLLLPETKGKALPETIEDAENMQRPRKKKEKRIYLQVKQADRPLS

[6] = target: 5-hydroxytryptamine receptor 1B (Rattus norvegicus, UniProt P28564)
Chain of 5-hydroxytryptamine receptor 1B (P28564 whole entry): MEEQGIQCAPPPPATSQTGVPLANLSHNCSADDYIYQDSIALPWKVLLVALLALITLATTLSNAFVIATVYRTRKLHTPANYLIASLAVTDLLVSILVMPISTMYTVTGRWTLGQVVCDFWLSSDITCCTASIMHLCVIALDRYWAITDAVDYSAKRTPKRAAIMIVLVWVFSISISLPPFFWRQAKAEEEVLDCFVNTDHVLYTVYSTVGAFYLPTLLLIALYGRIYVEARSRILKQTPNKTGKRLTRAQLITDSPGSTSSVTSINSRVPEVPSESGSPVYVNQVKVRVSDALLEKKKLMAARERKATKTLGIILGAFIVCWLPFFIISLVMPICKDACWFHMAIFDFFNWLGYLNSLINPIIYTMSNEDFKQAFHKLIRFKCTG

[7] = target: T4, Muscarinic acetylcholine receptor M2 (Rattus norvegicus, UniProt P10980)
T4 sequence (P10980 whole entry): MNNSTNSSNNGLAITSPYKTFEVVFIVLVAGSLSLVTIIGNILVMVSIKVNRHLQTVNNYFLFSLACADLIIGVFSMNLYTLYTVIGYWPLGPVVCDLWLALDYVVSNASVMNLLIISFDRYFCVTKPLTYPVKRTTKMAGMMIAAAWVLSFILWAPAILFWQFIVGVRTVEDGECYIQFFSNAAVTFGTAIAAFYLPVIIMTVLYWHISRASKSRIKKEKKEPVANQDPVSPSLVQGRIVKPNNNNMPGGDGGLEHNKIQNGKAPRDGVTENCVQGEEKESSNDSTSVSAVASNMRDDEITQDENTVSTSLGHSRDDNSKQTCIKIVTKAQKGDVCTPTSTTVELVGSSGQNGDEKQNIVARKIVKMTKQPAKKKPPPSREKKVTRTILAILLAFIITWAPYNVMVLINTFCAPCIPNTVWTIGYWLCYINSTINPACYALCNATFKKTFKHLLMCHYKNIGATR

[8] = target: Gamma-aminobutyric acid receptor subunit alpha-1 (Rattus norvegicus, UniProt P62813)
Chain of Gamma-aminobutyric acid receptor subunit alpha-1 (P62813 whole entry): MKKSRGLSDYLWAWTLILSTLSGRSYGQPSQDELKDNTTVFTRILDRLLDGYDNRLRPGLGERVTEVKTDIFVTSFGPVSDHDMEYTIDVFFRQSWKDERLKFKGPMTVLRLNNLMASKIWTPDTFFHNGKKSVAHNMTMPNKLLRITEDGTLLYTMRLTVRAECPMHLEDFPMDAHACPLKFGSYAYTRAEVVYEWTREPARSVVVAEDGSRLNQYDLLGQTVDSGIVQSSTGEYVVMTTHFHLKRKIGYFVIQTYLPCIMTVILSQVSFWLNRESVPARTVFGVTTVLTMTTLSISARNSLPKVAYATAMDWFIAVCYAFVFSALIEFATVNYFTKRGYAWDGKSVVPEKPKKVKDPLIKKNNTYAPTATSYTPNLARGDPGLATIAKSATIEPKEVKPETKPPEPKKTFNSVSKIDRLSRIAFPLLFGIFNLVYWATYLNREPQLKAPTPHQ

[9] = target: T5, Alpha-1A adrenergic receptor (Rattus norvegicus, UniProt P43140)
T5 sequence (P43140 whole entry): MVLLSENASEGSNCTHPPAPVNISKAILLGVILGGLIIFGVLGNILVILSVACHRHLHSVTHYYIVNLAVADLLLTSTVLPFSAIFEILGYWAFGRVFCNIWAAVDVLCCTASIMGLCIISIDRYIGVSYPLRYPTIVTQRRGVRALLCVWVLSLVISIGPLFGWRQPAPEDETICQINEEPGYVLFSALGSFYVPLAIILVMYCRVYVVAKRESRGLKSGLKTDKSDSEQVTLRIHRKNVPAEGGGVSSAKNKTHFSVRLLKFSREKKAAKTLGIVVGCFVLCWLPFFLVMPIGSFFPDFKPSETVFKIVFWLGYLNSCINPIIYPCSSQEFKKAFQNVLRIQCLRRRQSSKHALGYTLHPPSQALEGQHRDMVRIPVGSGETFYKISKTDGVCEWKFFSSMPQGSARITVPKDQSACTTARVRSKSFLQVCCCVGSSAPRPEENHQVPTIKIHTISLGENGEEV

[10] = target: T6, Alpha-2C adrenergic receptor (Rattus norvegicus, UniProt P22086)
T6 sequence (P22086 whole entry): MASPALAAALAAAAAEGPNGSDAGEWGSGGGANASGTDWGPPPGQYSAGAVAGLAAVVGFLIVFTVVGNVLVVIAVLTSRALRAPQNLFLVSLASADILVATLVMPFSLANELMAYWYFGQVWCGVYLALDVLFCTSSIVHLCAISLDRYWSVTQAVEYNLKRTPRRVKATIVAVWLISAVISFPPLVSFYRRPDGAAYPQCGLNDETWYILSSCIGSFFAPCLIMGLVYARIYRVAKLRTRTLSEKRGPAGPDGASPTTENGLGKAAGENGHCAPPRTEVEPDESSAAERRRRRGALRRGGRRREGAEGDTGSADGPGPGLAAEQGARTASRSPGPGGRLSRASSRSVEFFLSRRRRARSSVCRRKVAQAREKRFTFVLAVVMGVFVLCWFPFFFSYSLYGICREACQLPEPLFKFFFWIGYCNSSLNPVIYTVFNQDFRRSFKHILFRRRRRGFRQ

[11] = target: T7, 5-hydroxytryptamine receptor 1A (Rattus norvegicus, UniProt P19327)
T7 sequence (P19327 whole entry): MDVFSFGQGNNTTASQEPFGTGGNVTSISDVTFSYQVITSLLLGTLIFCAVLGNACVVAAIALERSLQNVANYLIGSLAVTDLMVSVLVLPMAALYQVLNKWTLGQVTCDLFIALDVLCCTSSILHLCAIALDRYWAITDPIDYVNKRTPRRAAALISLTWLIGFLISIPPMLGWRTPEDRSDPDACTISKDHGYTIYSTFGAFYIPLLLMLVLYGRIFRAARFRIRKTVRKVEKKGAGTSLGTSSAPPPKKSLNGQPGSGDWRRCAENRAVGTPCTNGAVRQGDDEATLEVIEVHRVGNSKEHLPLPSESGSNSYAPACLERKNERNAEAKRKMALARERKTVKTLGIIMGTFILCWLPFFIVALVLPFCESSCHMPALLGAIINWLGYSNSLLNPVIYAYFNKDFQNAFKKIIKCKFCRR

Row | Structure (SMILES) | Ki [1] [µM] | other results
1 | CCCN1CCN(c2ccc3ccccc3n2)CC1 [N-Propylquipazine] | 0.015 | –
2 | Clc1cncc(N2CCNCC2)n1 [L-630,571] | 0.029 | –
3 | c1ccc2nc(N3CCNCC3)ccc2c1 [2-Piperazin-1-yl-quinoline (Quipazine)] | 0.0015 | Ki [2]: 2.9 µM; Ki [3]: 0.18 µM; Ki [4]: > 10 µM; Ki [5]: 5 µM; Ki [6]: 0.2 µM; Ki [7]: > 10 µM
4 | Clc1cccc(N2CCNCC2)c1 [mCPP] | 0.02 | –
5 | COc1cccc2ccc(N3CCNCC3)nc12 | 0.36 | –
6 | c1ccc(C2CCNCC2)cc1 | 0.44 | –
7 | CN(C)C[C@@H]1C2CCC(CC2)[C@@H]1c1ccc(Cl)c(Cl)c1 [NSC_398] | 0.03 | –
8 | COc1cccc2ccc(N3CCN(C)CC3)nc12 [8-Methoxy-N-methylquipazine] | 0.44 | –
9 | c1ccc2nc(N3CCCCC3)ccc2c1 | 1 | –
10 | c1cnc(N2CCNCC2)nc1 [1-PP] | 4 | –
11 | COc1ccc(N2CCNCC2)cc1 [4-METHOXYPHENYLPIPERAZINE] | 0.34 | –
12 | c1ccc(N2CCNCC2)cc1 | 0.43 | –
13 | Cc1cccc2ccc(N3CCNCC3)nc12 [QUIPAZINE,8-Me] | 0.0047 | Ki [8]: > 10 µM; Ki [9]: > 10 µM; Ki [2]: > 10 µM; Ki [3]: 0.55 µM; Ki [10]: 3.8 µM; Ki [11]: 1.7 µM; Ki [6]: > 10 µM; Ki [7]: > 10 µM
14 | CCCN(CCC)c1ccc2ccccc2n1 | 1 | –
15 | CN1CCN(c2nc3ccccc3c(=O)[nH]2)CC1 [NSC_63211] | 0.27 | –
16 | COc1ccccc1N1CCNCC1 | 0.324 | –
17 | Clc1ccc(N2CCNCC2)cc1 | 0.12 | –
18 | c1ccc2c(N3CCNCC3)cccc2c1 | 0.11 | –
